From patent US10514377B2, “Method of diagnosing and therapeutically treating a patient for a traumatic brain injury” (priority 2010, dated 2019)

System: rats subjected to impact acceleration injury
Assay: Impact acceleration injury (traumatic brain injury) in rats, GFAP immuno-fluorescence of cortex 24 hours after injury
Format: in vivo
Details: rat
Excerpt: FIG. 3 through 5 represent respectively, representative photomicrographs of three groups of ten rats which have been subjected to the development of traumatic brain injury through impact by a weight under experimental conditions described hereinafter.
Low and high magnification micrographs of glial fibrillary acidic proteins (GFAP) immuno-fluorescence using a laser-scanning confocal microscope produced FIGS. 3 through 5. The GFAP antibody labels the intermediate filaments of most astrocytes in the brain. These photomicrographs, which were taken 24 hours after the animals were subjected to impact acceleration injury, show areas of cortex slightly lateral to the midline. The pial surface is at the top of the images and the midline is to the left of all images. In the sham animals shown in FIG. 3, a normal distribution of GFAP labeled astrocytes is seen, including their endfeet which surround the neurovasculature. […] There is also a patchy loss of GFAP-labeled astrocytes throughout the cortex and the vasculature shown by the arrow heads (as contrasted with the full arrows) appears damaged. It should also be noted that many of the remaining astrocytes appear to be hypertrophied. The loss of all GFAP-immunoreactivity and appearance of astrocyte hypertrophy are indicative of a neuroinflammatory response to injury.
In order to provide additional information regarding the invention, experiments were performed on animals who were subjected to the impact acceleration injury described hereinbefore, with the animals subsequently being sacrificed and the brains examined 24 hours after the injury. Tests were performed with body specimens which were urinary excretion and also with blood, either blood plasma or blood serum. In each group of ten animals, all had their urine tested and six had blood tested. With the sham animals, the mean urinary excretion values of marinobufagenin were 423±130 (SE)pgMBG/mg creatinine. With the impact acceleration injury rats, the mean urinary excretion values of marinobufagenin were […]. […] These tests confirm the evaluation of marinobufagenin in both urine and blood when an impact acceleration injury is present.

[1] = 120 μg bolus about 90 minutes after injury, 24 hours after injury, FIG. 5

## C[C@]12CC[C@H](O)C[C@H]1CC[C@@H]1[C@@H]2CC[C@]2(C)[C@@H](c3ccc(=O)oc3)C[C@H]3O[C@]132 [resibufogenin]
[1]
  GFAP immunoreactivity: reduce the decrease in GFAP immunoreactivity
  appearance of GFAP labeled astrocytes (normal vs hypertrophied): a greater proportion of GFAP labeled astrocytes have a normal, rather than a hypertrophied appearance
  glial scar in cortex: no observed glial scar
120 μg bolus of resibufogenin about 90 minutes after injury, cortex examined 24 hours after injury, FIG. 5 vs FIG. 4
  alterations after impact acceleration injury (glial scar, patchy loss of GFAP-labeled astrocytes, damaged vasculature, astrocyte hypertrophy): most of these alterations are ameliorated
